Legend:
Assay type in all cases: cell-free
[1] = biological target: Phosphatidylinositol 4-kinase beta (Homo sapiens) (UniProt Q9UBF8); assay: Inhibition of human PI4KB in HL-60 cells lysate assessed as reduction of labeling of acyl-phosphate ATP probe at 100 nM
[2] = biological target: T1, Phosphatidylinositol 5-phosphate 4-kinase type-2 gamma (Homo sapiens) (UniProt Q8TBX8); assay: Inhibition of human PIP4K2C in HL-60 cells lysate assessed as reduction of labeling of acyl-phosphate ATP probe at 100 nM
T1 sequence (whole entry): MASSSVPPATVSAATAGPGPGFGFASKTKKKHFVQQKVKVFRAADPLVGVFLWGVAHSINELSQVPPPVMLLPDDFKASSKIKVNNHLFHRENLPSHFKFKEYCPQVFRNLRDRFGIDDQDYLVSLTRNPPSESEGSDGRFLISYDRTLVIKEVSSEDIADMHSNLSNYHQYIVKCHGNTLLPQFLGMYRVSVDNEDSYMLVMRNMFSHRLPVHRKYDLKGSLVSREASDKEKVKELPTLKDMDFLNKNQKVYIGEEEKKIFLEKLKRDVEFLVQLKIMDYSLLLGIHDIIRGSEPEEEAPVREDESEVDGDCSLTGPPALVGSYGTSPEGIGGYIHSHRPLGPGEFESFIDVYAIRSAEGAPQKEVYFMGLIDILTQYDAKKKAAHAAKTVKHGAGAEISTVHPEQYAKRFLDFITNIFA

[3] = biological target: Serine/threonine-protein kinase SMG1 (Homo sapiens) (UniProt Q96Q15); assay: Inhibition of human SMG1 in HL-60 cells lysate assessed as reduction of labeling of acyl-phosphate ATP probe at 100 nM
[4] = biological target: T2, Aurora kinase A (Homo sapiens) (UniProt O14965); assay: Inhibition of human AurA in HL-60 cells lysate assessed as reduction of labeling of acyl-phosphate ATP probe at 100 nM
T2 sequence (whole entry): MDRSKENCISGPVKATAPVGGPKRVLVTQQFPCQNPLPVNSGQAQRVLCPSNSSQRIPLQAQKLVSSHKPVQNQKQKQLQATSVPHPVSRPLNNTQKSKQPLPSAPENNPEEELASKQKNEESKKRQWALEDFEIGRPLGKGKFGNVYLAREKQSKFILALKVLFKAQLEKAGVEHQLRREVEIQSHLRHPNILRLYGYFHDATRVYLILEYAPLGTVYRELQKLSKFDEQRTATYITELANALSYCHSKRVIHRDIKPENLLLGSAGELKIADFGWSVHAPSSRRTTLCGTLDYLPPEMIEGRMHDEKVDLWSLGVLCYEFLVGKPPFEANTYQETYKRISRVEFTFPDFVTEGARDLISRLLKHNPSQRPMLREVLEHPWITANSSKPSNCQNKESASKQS

[5] = biological target: eIF-2-alpha kinase GCN2 (Homo sapiens) (UniProt Q9P2K8); assay: Inhibition of human GCN2 domain2 in HL-60 cells lysate assessed as reduction of labeling of acyl-phosphate ATP probe at 100 nM
[6] = biological target: T3, Inhibitor of nuclear factor kappa-B kinase subunit alpha (Homo sapiens) (UniProt O15111); assay: Inhibition of human IKKalpha in HL-60 cells lysate assessed as reduction of labeling of acyl-phosphate ATP probe at 100 nM
T3 sequence (whole entry): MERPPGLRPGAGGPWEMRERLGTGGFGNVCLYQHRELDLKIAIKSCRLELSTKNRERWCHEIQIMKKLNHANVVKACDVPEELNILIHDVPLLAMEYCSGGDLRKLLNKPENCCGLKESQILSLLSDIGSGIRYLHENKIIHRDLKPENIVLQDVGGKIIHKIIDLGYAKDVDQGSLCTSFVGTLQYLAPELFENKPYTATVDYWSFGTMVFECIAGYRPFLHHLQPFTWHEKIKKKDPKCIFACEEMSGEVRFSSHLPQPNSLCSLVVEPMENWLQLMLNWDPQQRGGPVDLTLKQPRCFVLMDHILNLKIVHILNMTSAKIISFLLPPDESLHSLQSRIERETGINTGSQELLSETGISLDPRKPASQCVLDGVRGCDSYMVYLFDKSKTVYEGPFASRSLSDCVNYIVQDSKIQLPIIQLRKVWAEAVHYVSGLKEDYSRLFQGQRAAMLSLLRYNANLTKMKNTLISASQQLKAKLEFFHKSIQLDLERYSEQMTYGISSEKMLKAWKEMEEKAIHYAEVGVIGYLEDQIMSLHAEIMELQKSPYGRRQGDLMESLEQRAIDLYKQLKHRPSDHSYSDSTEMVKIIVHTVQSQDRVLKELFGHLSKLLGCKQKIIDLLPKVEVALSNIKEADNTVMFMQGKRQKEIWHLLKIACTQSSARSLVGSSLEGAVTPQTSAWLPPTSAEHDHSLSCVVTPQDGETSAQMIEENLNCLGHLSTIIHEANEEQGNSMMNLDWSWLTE

[7] = biological target: Interferon-induced, double-stranded RNA-activated protein kinase (Homo sapiens) (UniProt P19525); assay: Inhibition of human PKR in HL-60 cells lysate assessed as reduction of labeling of acyl-phosphate ATP probe at 100 nM
Chain of Interferon-induced, double-stranded RNA-activated protein kinase (Homo sapiens) (P19525 whole entry): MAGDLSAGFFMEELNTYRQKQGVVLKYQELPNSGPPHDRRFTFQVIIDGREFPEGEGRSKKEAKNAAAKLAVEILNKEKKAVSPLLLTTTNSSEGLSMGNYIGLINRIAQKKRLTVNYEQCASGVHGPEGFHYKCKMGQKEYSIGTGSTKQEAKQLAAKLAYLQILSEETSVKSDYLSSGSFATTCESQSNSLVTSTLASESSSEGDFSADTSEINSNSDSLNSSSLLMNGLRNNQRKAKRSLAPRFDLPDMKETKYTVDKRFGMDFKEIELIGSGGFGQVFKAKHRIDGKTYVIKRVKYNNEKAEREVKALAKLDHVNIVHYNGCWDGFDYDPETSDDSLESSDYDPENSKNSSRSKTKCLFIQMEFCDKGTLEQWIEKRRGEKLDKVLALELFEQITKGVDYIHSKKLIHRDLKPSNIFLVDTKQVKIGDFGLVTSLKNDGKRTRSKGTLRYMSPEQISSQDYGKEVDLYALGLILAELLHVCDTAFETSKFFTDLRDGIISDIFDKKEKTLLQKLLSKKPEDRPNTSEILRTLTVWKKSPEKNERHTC

[8] = biological target: Tyrosine-protein kinase Fgr (Homo sapiens) (UniProt P09769); assay: Inhibition of human FGR in HL-60 cells lysate assessed as reduction of labeling of acyl-phosphate ATP probe at 100 nM
Chain of Tyrosine-protein kinase Fgr (Homo sapiens) (P09769 2-529 limits assumed): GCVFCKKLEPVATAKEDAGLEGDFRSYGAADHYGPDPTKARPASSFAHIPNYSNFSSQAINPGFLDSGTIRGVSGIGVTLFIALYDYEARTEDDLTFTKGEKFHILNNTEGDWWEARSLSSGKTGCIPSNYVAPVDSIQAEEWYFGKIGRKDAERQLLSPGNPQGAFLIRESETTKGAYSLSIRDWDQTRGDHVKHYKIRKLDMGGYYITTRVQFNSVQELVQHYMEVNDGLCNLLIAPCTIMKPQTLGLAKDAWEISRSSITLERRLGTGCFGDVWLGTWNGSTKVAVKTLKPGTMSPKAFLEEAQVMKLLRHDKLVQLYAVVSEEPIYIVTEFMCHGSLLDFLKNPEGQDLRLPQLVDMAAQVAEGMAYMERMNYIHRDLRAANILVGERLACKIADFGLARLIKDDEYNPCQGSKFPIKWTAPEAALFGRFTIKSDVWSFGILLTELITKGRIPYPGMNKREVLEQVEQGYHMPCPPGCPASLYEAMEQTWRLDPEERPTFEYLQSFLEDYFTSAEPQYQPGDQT

[9] = biological target: Serine/threonine-protein kinase B-raf (Homo sapiens) (UniProt P15056); assay: Inhibition of human BRAF in HL-60 cells lysate assessed as reduction of labeling of acyl-phosphate ATP probe at 100 nM
Chain of Serine/threonine-protein kinase B-raf (Homo sapiens) (P15056 whole entry): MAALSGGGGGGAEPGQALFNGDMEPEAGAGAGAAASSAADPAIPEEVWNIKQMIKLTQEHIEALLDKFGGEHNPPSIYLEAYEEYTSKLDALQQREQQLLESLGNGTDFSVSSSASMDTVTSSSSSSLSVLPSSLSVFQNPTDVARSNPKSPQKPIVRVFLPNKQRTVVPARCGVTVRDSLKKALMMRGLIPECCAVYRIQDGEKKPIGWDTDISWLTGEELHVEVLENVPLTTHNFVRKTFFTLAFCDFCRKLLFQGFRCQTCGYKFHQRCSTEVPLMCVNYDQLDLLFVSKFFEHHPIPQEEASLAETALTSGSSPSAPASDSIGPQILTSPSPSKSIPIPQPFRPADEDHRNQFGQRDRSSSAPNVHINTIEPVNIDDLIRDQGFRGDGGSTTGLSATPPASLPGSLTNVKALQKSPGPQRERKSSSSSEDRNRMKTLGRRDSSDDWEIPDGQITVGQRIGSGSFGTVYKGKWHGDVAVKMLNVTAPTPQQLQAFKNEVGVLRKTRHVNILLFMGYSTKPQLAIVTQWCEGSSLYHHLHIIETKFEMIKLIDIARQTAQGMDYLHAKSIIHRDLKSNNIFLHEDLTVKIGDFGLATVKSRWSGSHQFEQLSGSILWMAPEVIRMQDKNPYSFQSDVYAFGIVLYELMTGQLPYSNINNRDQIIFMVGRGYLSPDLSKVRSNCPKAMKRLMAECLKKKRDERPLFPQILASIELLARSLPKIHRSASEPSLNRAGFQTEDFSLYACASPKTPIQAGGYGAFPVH

[10] = biological target: Mitogen-activated protein kinase kinase kinase 20 (Homo sapiens) (UniProt Q9NYL2); assay: Inhibition of human ZAK in HL-60 cells lysate assessed as reduction of labeling of acyl-phosphate ATP probe at 100 nM
Chain of Mitogen-activated protein kinase kinase kinase 20 (Homo sapiens) (Q9NYL2 2-800 limits assumed): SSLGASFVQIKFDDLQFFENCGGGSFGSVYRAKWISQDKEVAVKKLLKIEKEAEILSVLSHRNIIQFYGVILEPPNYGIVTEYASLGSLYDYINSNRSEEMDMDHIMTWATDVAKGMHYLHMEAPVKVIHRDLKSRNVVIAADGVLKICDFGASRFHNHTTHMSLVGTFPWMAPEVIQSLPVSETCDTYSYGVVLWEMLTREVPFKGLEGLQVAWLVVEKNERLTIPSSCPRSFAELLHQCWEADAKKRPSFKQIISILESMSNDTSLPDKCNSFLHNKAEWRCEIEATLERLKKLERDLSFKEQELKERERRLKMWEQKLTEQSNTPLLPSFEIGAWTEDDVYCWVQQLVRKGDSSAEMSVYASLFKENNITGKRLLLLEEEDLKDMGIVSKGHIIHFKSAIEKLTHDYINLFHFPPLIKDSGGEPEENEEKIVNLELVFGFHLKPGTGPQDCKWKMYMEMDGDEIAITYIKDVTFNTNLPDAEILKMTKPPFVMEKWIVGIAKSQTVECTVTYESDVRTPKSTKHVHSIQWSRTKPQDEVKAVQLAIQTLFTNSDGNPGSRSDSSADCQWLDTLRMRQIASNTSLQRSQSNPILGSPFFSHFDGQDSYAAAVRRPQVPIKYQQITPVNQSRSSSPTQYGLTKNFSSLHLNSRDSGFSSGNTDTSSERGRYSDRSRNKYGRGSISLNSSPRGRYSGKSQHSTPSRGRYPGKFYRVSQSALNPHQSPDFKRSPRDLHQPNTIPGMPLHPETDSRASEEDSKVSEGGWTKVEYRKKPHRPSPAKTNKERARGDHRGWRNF

[11] = biological target: Glycogen synthase kinase-3 alpha (Homo sapiens) (UniProt P49840); assay: Inhibition of human GSK3alpha in HL-60 cells lysate assessed as reduction of labeling of acyl-phosphate ATP probe at 100 nM
Chain of Glycogen synthase kinase-3 alpha (Homo sapiens) (P49840 2-483 limits assumed): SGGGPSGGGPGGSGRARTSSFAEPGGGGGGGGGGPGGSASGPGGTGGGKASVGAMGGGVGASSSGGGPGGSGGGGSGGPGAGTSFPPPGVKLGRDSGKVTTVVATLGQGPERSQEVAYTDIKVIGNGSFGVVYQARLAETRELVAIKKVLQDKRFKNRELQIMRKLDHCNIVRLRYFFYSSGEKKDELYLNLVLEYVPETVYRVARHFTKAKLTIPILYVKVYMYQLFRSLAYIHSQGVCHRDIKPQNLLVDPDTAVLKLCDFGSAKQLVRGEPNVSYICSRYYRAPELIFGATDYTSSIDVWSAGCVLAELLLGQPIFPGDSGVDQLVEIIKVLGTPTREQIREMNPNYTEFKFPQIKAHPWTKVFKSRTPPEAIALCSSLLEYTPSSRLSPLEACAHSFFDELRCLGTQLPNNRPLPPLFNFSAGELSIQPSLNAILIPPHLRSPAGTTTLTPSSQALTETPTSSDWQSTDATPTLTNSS

[12] = biological target: Cyclin-dependent kinase 13 (Homo sapiens) (UniProt Q14004); assay: Inhibition of human CHED in HL-60 cells lysate assessed as reduction of labeling of acyl-phosphate ATP probe at 100 nM

Chain of Phosphatidylinositol 4-kinase beta (Homo sapiens) (Q9UBF8 2-816 limits assumed): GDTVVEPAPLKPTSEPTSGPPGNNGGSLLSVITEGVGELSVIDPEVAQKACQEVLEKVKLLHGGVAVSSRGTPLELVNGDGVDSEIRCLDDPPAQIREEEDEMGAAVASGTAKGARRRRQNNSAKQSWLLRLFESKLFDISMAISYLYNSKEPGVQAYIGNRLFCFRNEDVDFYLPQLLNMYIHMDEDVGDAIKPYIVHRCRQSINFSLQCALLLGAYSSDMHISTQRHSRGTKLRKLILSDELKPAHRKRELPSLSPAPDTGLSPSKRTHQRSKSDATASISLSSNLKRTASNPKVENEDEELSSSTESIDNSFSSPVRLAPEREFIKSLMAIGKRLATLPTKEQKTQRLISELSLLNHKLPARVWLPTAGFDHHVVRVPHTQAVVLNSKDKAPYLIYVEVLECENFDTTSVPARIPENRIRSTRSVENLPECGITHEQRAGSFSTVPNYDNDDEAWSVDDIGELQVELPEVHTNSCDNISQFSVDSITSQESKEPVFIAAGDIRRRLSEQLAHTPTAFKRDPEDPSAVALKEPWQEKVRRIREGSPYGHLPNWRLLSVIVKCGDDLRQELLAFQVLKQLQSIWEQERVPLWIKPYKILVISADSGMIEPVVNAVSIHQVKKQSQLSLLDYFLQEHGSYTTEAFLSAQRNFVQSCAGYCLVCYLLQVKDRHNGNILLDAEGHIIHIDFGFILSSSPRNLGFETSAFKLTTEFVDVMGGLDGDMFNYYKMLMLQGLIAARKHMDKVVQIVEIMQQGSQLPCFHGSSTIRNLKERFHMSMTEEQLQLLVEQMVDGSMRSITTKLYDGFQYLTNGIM

inhibition [1] [%]	inhibition [2] [%]	inhibition [3] [%]	inhibition [4] [%]	inhibition [5] [%]	inhibition [6] [%]	inhibition [7] [%]	inhibition [8] [%]	inhibition [9] [%]	inhibition [10] [%]	inhibition [11] [%]	inhibition [12] [%]	SMILES
< 35	< 35	< 35	< 35	< 35	< 35	< 35	< 35	< 35	< 35	95.2	< 35	C[C@H]1COc2c(NCCCn3cccn3)c(F)c(N)c3c(=O)c(C(=O)O)cn1c23
< 35	< 35	< 35	< 35	< 35	< 35	< 35	< 35	< 35	< 35	> 99.5	< 35	C[C@H]1COc2c(NCCCc3ccccn3)c(F)c(N)c3c(=O)c(C#N)cn1c23
< 35	< 35	< 35	< 35	< 35	< 35	< 35	< 35	< 35	< 35	> 99.5	< 35	C[C@H]1COc2c(NCCCn3cccn3)c(F)c(N)c3c(=O)c(C#N)cn1c23
< 35	< 35	< 35	< 35	< 35	< 35	< 35	< 35	< 35	< 35	94.3	< 35	C[C@H]1COc2c(NCCCc3ccccn3)c(F)c(N)c3c(=O)c(C(=O)O)cn1c23

— ChEMBL document CHEMBL1938230, “6-Position optimization of tricyclic 4-quinolone-based inhibitors of glycogen synthase kinase-3β: discovery of nitrile derivatives with picomolar potency” (Bioorg Med Chem Lett, 2012)
